Patent US20240158370A1, “CK1 alpha AND DUAL CK1 alpha / GSPT1 DEGRADING COMPOUNDS” (Innovo Therapeutics, Inc., priority 2022, published 2024)

Key:
[1] = target: GSPT1 (Homo sapiens, UniProt P15170+Q96SW2); assay: HiBiT degradation assay, GSPT1, Procedure A; type: cell-based; design: HiBit-GSPT1 KI HEK293(LgBit) Cells; host or cells: HEK293(LgBit) knock-in cells; conditions: six hours
In short: (§1)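 Cells in DMEM+10% FBS at 1×10^6 cells/ml were added to pre-spotted compound (10-point dose response, 10 μM to 0.005 μM, 0.1% DMSO) and incubated 6 h at 37° C. Nano-Glo HiBiT lytic reagent was added and luminescence read. DC50 and Ymin came from 4-parameter curve fits.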

[2] = target: T1, CK1α (Homo sapiens, UniProt P48729+Q96SW2); assay: HiBiT degradation assay, CK1α, Procedure A; type: cell-based; conditions: six hours
T1 construct: CSNK1A1-HiBit KI HEK293(LgBit) Cells; host or cells: HEK293(LgBit) knock-in cells
In short: as §1

T1 sequence (P48729 whole entry): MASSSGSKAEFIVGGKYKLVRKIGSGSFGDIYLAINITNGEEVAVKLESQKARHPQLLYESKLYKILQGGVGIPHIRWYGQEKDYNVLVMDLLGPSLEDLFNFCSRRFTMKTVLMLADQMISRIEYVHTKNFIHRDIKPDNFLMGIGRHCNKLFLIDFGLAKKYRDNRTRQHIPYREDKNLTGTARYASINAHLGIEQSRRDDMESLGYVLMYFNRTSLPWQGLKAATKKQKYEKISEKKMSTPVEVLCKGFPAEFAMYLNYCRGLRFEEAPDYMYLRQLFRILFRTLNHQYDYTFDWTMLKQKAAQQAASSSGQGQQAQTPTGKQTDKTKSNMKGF
T1 sequence (Q96SW2 whole entry): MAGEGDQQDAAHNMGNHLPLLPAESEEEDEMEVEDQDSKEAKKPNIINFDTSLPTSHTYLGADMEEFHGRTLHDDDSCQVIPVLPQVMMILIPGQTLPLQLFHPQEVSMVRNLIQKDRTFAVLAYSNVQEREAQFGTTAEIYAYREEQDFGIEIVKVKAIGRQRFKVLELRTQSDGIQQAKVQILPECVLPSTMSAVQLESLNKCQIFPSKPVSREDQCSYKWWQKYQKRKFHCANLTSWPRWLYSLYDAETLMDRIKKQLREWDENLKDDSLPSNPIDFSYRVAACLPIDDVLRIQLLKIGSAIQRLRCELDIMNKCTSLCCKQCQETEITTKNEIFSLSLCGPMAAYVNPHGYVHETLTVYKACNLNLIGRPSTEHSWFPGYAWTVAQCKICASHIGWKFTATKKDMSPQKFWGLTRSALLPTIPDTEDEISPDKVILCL
T1 sequence (Q16531 whole entry partner): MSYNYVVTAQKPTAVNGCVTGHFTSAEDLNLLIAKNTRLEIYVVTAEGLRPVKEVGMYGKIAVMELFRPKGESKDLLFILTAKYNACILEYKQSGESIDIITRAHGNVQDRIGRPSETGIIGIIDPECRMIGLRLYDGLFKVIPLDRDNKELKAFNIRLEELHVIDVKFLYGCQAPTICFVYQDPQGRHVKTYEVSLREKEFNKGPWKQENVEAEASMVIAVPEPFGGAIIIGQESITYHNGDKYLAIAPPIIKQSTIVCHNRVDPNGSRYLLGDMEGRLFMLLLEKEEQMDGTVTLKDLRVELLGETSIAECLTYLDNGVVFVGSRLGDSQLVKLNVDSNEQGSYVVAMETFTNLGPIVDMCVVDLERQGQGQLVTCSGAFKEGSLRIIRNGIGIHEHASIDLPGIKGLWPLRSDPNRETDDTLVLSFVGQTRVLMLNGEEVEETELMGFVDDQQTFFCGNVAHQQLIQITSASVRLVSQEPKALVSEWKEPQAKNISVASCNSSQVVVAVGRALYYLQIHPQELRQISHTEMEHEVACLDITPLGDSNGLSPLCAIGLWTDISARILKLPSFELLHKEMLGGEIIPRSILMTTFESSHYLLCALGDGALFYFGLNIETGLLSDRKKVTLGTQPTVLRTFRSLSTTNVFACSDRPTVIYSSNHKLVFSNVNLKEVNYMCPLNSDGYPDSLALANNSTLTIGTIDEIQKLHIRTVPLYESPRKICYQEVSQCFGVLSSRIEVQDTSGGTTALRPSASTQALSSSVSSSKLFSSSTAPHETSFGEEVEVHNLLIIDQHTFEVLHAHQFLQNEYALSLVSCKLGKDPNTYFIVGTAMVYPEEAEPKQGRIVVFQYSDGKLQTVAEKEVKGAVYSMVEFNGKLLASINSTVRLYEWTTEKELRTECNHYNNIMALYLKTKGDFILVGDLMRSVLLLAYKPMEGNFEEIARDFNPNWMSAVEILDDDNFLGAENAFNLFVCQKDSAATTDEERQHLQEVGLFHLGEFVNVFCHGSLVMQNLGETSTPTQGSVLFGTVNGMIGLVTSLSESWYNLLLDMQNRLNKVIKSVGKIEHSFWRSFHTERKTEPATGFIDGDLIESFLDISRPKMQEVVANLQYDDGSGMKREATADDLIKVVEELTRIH
Sequence of GSPT1 (P15170 whole entry): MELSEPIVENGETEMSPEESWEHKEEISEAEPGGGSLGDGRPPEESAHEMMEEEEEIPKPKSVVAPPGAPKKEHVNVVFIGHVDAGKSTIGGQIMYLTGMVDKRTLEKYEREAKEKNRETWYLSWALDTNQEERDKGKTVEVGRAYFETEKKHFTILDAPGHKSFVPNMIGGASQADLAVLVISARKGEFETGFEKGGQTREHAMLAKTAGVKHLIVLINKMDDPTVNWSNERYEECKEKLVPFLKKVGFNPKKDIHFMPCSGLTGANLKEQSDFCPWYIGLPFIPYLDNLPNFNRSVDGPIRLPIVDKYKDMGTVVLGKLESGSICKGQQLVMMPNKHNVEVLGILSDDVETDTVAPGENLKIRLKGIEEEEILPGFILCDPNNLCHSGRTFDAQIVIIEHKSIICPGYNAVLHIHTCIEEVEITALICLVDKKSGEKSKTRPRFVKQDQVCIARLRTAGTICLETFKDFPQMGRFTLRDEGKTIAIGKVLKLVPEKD
Sequence of GSPT1 (Q96SW2 whole entry): as the sequence (Q96SW2 whole entry) above
Sequence of GSPT1 (Q16531 whole entry partner): as the sequence (Q16531 whole entry partner) above

SMILES | DC50 [1] [nM] | CK1α Ymin [2] | DC50 [2] [nM] | GSPT1 Ymin [1]
COc1ccc(-c2nn(C(F)F)cc2-c2ccc3c(c2)CN(C2CCC(=O)NC2=O)C3=O)c(Cl)c1 (stereo not shown) [Example 425, 3-(5-(3-(2-chloro-4-methoxyphenyl)-1-(difluoromethyl)-1H-pyrazol-4-yl)-1-oxoisoindolin-2-yl)piperidine-2,6-dione] | ≥ 25 | D (D = >10- 25% remaining) | < 25 | 
CC(C)n1ncc(-c2ccc3c(c2)CN(C2CCC(=O)NC2=O)C3=O)c1-c1ccccc1 (stereo not shown) [Example 426, 3-(5-(1-isopropyl-5-phenyl-1H-pyrazol-4-yl)-1-oxoisoindolin-2-yl)piperidine-2,6-dione] | ≥ 25 | D (D = >10- 25% remaining) | < 25 | F (F = >75-100% remaining)
O=C1CCC(N2Cc3cc(-c4cn(CC(F)(F)F)nc4-c4ccccc4)ccc3C2=O)C(=O)N1 (stereo not shown) [Example 427, 3-(1-oxo-5-(3-phenyl-1-(2,2,2-trifluoroethyl)-1H-pyrazol-4-yl)isoindolin-2-yl)piperidine-2,6-dione] | ≥ 25 | C (C = 0-10% remaining) | < 25 | F (F = >75-100% remaining)
Cn1ncc(-c2ccc3c(c2)CN(C2CCC(=O)NC2=O)C3=O)c1-c1ccc2c(c1)OC(F)(F)O2 (stereo not shown) [Example 428, 3-(5-(5-(2,2-difluorobenzo[d][1,3]dioxol-5-yl)-1-methyl-1H-pyrazol-4-yl)-1-oxoisoindolin-2-yl)piperidine-2,6-dione] | ≥ 25 | C (C = 0-10% remaining) | < 25 | F (F = >75-100% remaining)
CCn1ncc(-c2ccc3c(c2)CN(C2CCC(=O)NC2=O)C3=O)c1-c1ccccc1 (stereo not shown) [Example 429, 3-(5-(1-ethyl-5-phenyl-1H-pyrazol-4-yl)-1-oxoisoindolin-2-yl)piperidine-2,6-dione] | < 25 | D (D = >10- 25% remaining) | < 25 | F (F = >75-100% remaining)
O=C1CCC(N2Cc3cc(-c4cnn(CC(F)F)c4-c4ccccc4)ccc3C2=O)C(=O)N1 (stereo not shown) [Example 430, 3-(5-(1-(2,2-difluoroethyl)-5-phenyl-1H-pyrazol-4-yl)-1-oxoisoindolin-2-yl)piperidine-2,6-dione] | ≥ 25 | D (D = >10- 25% remaining) | < 25 | F (F = >75-100% remaining)
[2H]C([2H])([2H])n1ncc(-c2ccc3c(c2)CN(C2CCC(=O)NC2=O)C3=O)c1-c1ccc(OC)c(F)c1 (stereo not shown) [Example 431, 3-(5-(5-(3-fluoro-4-methoxyphenyl)-1-(methyl-d3)-1H-pyrazol-4-yl)-1-oxoisoindolin-2-yl)piperidine-2,6-dione] | ≥ 25 | C (C = 0-10% remaining) | < 25 | F (F = >75-100% remaining)
[2H]C([2H])([2H])n1ncc(-c2ccc3c(c2)CN(C2CCC(=O)NC2=O)C3=O)c1-c1ccc2c(c1)CCO2 (stereo not shown) [Example 432, 3-(5-(5-(2,3-dihydrobenzofuran-5-yl)-1-(methyl-d3)-1H-pyrazol-4-yl)-1-oxoisoindolin-2-yl)piperidine-2,6-dione] | ≥ 25 | C (C = 0-10% remaining) | < 25 | F (F = >75-100% remaining)
[2H]C([2H])([2H])n1ncc(-c2ccc3c(c2)CN(C2CCC(=O)NC2=O)C3=O)c1-c1ccc(OC)cc1 (stereo not shown) [Example 433, 3-(5-(5-(4-methoxyphenyl)-1-(methyl-d3)-1H-pyrazol-4-yl)-1-oxoisoindolin-2-yl) piperidine-2,6-dione] | ≥ 25 | C (C = 0-10% remaining) | < 25 | F (F = >75-100% remaining)
[2H]C([2H])([2H])n1ncc(-c2ccc3c(c2)CN(C2CCC(=O)NC2=O)C3=O)c1-c1ccc(OC)cc1Cl (stereo not shown) [Example 434, 3-(5-(5-(2-chloro-4-methoxyphenyl)-1-(methyl-d3)-1H-pyrazol-4-yl)-1-oxoisoindolin-2-yl)piperidine-2,6-dione] | ≥ 25 | C (C = 0-10% remaining) | < 25 | F (F = >75-100% remaining)
[2H]C([2H])([2H])n1ncc(-c2ccc3c(c2)CN(C2CCC(=O)NC2=O)C3=O)c1-c1ccc(OC(F)(F)F)cc1 (stereo not shown) [Example 435, 3-(5-(1-(methyl-d3)-5-(4-(trifluoromethoxy)phenyl)-1H-pyrazol-4-yl)-1-oxoisoindolin-2-yl) piperidine-2,6-dione] | < 25 | E (E = >25-75% remaining) | < 25 | F (F = >75-100% remaining)
[2H]C([2H])([2H])n1ncc(-c2ccc3c(c2)CN(C2CCC(=O)NC2=O)C3=O)c1-c1ccc(OC(F)F)cc1 (stereo not shown) [Example 436, 3-(5-(5-(4-(difluoromethoxy)phenyl)-1-(methyl-d3)-1H-pyrazol-4-yl)-1-oxoisoindolin-2-yl)piperidine-2,6-dione] | ≥ 25 | D (D = >10- 25% remaining) | < 25 | F (F = >75-100% remaining)
[2H]C([2H])([2H])n1cc(-c2ccc3c(c2)CN(C2CCC(=O)NC2=O)C3=O)nc1-c1ccccc1 (stereo not shown) [Example 437, 3-(5-(1-(methyl-d3)-2-phenyl-1H-imidazol-4-yl)-1-oxoisoindolin-2-yl)piperidine-2,6-dione] | < 25 | C (C = 0-10% remaining) | < 25 | F (F = >75-100% remaining)
Cn1ncc(-c2ccc3c(c2)CN(C2CCC(=O)NC2=O)C3=O)c1-c1ccc(F)cc1C#N (stereo not shown) [Example 438] | ≥ 25 | E (E = >25-75% remaining) | ≥ 25 | F (F = >75-100% remaining)
Cn1cnc(-c2ccc3c(c2)CN(C2CCC(=O)NC2=O)C3=O)c1-c1ccc(N)cc1 (stereo not shown) [Example 439] | < 25 | C (C = 0-10% remaining) | < 25 | E (E = >25-75% remaining)
Cn1cnc(-c2ccc3c(c2)CN(C2CCC(=O)NC2=O)C3=O)c1-c1ccccc1N (stereo not shown) [Example 440] | < 25 | C (C = 0-10% remaining) | < 25 | E (E = >25-75% remaining)
Cn1cnc(-c2ccc3c(c2)CN(C2CCC(=O)NC2=O)C3=O)c1-c1cccc(F)c1 (stereo not shown) [Example 441] | < 25 | C (C = 0-10% remaining) | < 25 | E (E = >25-75% remaining)
Cc1cccc(C)c1-c1c(-c2ccc3c(c2)CN(C2CCC(=O)NC2=O)C3=O)ncn1C (stereo not shown) [Example 442] | ≥ 25 | E (E = >25-75% remaining) | < 25 | F (F = >75-100% remaining)
Cn1cnc(-c2ccc3c(c2)CN(C2CCC(=O)NC2=O)C3=O)c1-c1ccc2c(c1)CCO2 (stereo not shown) [Example 443] | < 25 | C (C = 0-10% remaining) | < 25 | E (E = >25-75% remaining)
Cn1cnc(-c2ccc3c(c2)CN(C2CCC(=O)NC2=O)C3=O)c1-c1ccc(-n2cccn2)cc1 (stereo not shown) [Example 444] | < 25 | C (C = 0-10% remaining) | < 25 | E (E = >25-75% remaining)
Cn1cnc(-c2ccc3c(c2)CN(C2CCC(=O)NC2=O)C3=O)c1-c1ccc(F)cc1C(F)(F)F (stereo not shown) [Example 445] | ≥ 25 | E (E = >25-75% remaining) | < 25 | F (F = >75-100% remaining)
COc1ccc2cc(-c3c(-c4ccc5c(c4)CN(C4CCC(=O)NC4=O)C5=O)ncn3C)ccc2c1 (stereo not shown) [Example 446] | < 25 | D (D = >10- 25% remaining) | < 25 | F (F = >75-100% remaining)
Cn1cnc(-c2ccc3c(c2)CN(C2CCC(=O)NC2=O)C3=O)c1-c1ccc(C(=O)Nc2ccccn2)cc1 (stereo not shown) [Example 447] | ≥ 25 | D (D = >10- 25% remaining) | ≥ 25 | F (F = >75-100% remaining)
Cn1cnc(-c2ccc3c(c2)CN(C2CCC(=O)NC2=O)C3=O)c1-c1ccc(S(=O)(=O)NC2CCCCC2)cc1 (stereo not shown) [Example 448] | ≥ 25 | D (D = >10- 25% remaining) | ≥ 25 | F (F = >75-100% remaining)
CN1CCN(S(=O)(=O)c2ccc(-c3c(-c4ccc5c(c4)CN(C4CCC(=O)NC4=O)C5=O)ncn3C)cc2)CC1 (stereo not shown) [Example 449] | ≥ 25 | E (E = >25-75% remaining) | ≥ 25 | F (F = >75-100% remaining)
Cn1ncc(-c2ccc3c(c2)CN(C2CCC(=O)NC2=O)C3=O)c1-c1ccnnc1 (stereo not shown) [Example 450] | ≥ 25 | F (F = >75-100% remaining) | ≥ 25 | F (F = >75-100% remaining)
Cn1nccc1-c1c(-c2ccc3c(c2)CN(C2CCC(=O)NC2=O)C3=O)cnn1C (stereo not shown) [Example 451] | ≥ 25 | E (E = >25-75% remaining) | ≥ 25 | F (F = >75-100% remaining)
Cc1oncc1-c1c(-c2ccc3c(c2)CN(C2CCC(=O)NC2=O)C3=O)cnn1C (stereo not shown) [Example 452] | ≥ 25 | E (E = >25-75% remaining) | < 25 | F (F = >75-100% remaining)
Cn1ncc(-c2ccc3c(c2)CN(C2CCC(=O)NC2=O)C3=O)c1-c1cccnc1N (stereo not shown) [Example 453] | ≥ 25 | E (E = >25-75% remaining) | < 25 | F (F = >75-100% remaining)
